Laboratory results: patent US6403149B1, “Fluorinated ketones as lubricant deposition solvents for magnetic media applications” (3M Innovative Properties Company, priority 2001, dated 2002)
Where two headings read alike, the source gives them in different places.

Assays:
[1] = Solubility/miscibility of perfluoropolyether lubricants (Z-DOL, AM 3001) and phosphazene additive X-1P in fluorinated solvents
Protocol: The term “miscible” denotes that the lubricant and fluorinated solvent were miscible in all proportions, forming an essentially clear solution. Any number entry denotes solubility in the fluorinated solvent as percent by weight. The term “NT” denotes that the compound was not tested for solubility with the solvent.
Z-DOL was evaluated for solubility in the following fluorinated ketones: […]

[2] = Solubility of impurities (dioctyl phthalate, silicone oils) in fluorinated solvents; assay type: physicochemical
Protocol: In Comparative Examples C6-C10, the same “impurities” were evaluated for solubility in C6F14 (a perfluorocarbon), C4F9OCH3 (a hydrofluoroether), CF3CFHCFHCF2CF3 (a hydrofluorocarbon), C3F5HCl2 (a hydrochlorofluorocarbon), and […] (a chlorofluorocarbon), all fluorinated solvents outside the scope of this invention.
The term “NT” denotes that the impurity was not tested in the fluorinated solvent.

[3] = Short-term inhalation tests with rats (acute toxicity); assay type: in vivo
Text: (§1) Additionally, the fluorinated ketones have low toxicity.

[4] = Cardiac sensitization no-effect level; conditions: in vivo, inhaled
Text: as §1

[5] = solute FOMBLIN AM 3001 perfluoropolyether lubricant, miscible = miscible in all proportions
[6] = solute X-1P cyclic phosphazene additive, miscible = miscible in all proportions
[7] = solute Z-DOL perfluoropolyether lubricant, miscible = miscible in all proportions, essentially clear solution

Compound	Solubility of AM 3001 in the solvent [1, 5]	Solubility of X-1P in the solvent [1, 6]	Solubility of Z-DOL in the solvent [1, 7]	other results
O=C(C(F)(C(F)(F)F)C(F)(F)F)C(F)(C(F)(F)F)C(F)(F)F [(CF3)2CFC(O)CF(CF3)2, 1,1,1,2,4,5,5,5,6,6,6-octafluoro-2,4-bis(trifluoromethyl)pentan-3-one]	miscible	0.03 percent by weight	miscible	–
COC(F)(F)C(F)(F)C(F)(F)C(F)(F)F [C4F9OCH3, perfluorobutyl methyl ether]	miscible	miscible	miscible	–
FC(F)(F)C(F)(F)C(F)(F)C(F)(F)C(F)(F)C(F)(F)F [C6F14, perfluorohexane]	miscible	–	miscible	–
O=C(C(F)(F)C(F)(F)F)C(F)(C(F)(F)F)C(F)(F)F [CF3CF2C(O)CF(CF3)2, 1,1,1,2,4,4,5,5,5-nonafluoro-2-trifluoromethyl-pentan-3-one]	–	–	–	Solubility of AM 3001 in the solvent [1]: miscible; Solubility of X-1P in the solvent [1]: 0.03 percent by weight; Solubility of Z-DOL in the solvent [1]: miscible; Solubility of DOP in the solvent [2]: 0.024; Solubility of Silicone 100 cst in the solvent [2]: <0.01; Solubility of Silicone 1000 cst in the solvent [2]: <0.01; Solubility of Silicone 10000 cst in the solvent [2]: <0.01; Acute toxicity [3]: low acute toxicity; "no-effect" level for cardiac sensitization [4]: > 150,000 ppm
FC(C(F)C(F)(F)C(F)(F)F)C(F)(F)F (stereo not shown) [CF3CFHCFHCF2CF3, 1,1,1,2,3,4,4,5,5,5-decafluoropentane]	miscible	miscible	miscible	–
O=C(C(F)(F)C(F)(F)C(F)(F)F)C(F)(C(F)(F)F)C(F)(F)F [n-C3F7C(O)CF(CF3)2, 1,1,1,2,4,4,5,5,6,6,6-undecafluoro-2-trifluoromethylhexan-3-one]	miscible	–	miscible	–
dichloropentafluoropropane [C3F5HCl2]	miscible	miscible	miscible	–
